In article PMC9545004, “Transglutaminase 2 affinity and enzyme‐substrate intermediate stability as determining factors for T‐cell responses to gluten peptides in celiac disease” (European Journal of Immunology, 2022):
Read-outs that look alike come from different tables or passages of the source.

Assays:
[1] = tested on: TG2:gluten complexes uptake by TG2-specific B cells (A20, BCR 679-14-E06); test: Inhibition by primary amines of TG2:gluten complex uptake by TG2-specific B cells, flow cytometry; format: cell-based, Murine A20 B lymphoma; recombinant human TG2; conditions: for IC50: B-cell
Excerpt: (§1) Murine A20 B lymphoma cells engineered to express either the celiac patient‐derived TG2‐specific BCR 679‐14‐E06 or the non‐TG2‐specific BCR 693‐2‐F02 as human IgD are previously described. For B‐cell/T‐cell collaboration assays, we used A20 BCR transfectants also transduced to express HLA‐DQ2.5 [27]. Murine BW58α^–β^– cells were retrovirally transduced to express human CD4 as well as the celiac patient‐derived gluten‐specific TCR from a DQ2.5‐glia‐γ1‐reactive T‐cell clone (TCC 4.32) as previously described. The generation of TCR transfectants expressing DQ2.5‐glia‐α2‐reactive TCR (TCC 364.14) and DQ2.5‐glia‐ω2‐reactive TCR (clone 737.30) have been described previously.
B‐cell uptake of gluten peptides was measured essentially as previously described. The following 9‐mer peptides were compared: FITC‐α2, FITC‐ω2, FITC‐γ1, and FITC‐γ3. In brief, A20 cells (300 000/well) expressing TG2‐specific (679‐14‐E06) or non‐TG2 specific BCR (693‐2‐F02) were incubated with recombinant TG2 (final 3 µg/mL), 5 µM FITC peptide, and 2 mM CaCl2 in RPMI at a final volume of 50 µL. Following incubation at 37°C, the TG2 enzymatic activity was quenched by the addition of 100 µL 2 mM EDTA/RPMI at specific timepoints. Cells were washed, fixed in 2% methanol‐free formaldehyde (Invitrogen), resuspended in 2% fetal calf serum (FCS)/PBS, and analyzed by flow cytometry (Attune NxT Flow Cytometer, Thermo Scientific). For each peptide, a delta MFI was calculated by subtracting MFI from non‐TG2 specific A20 cell (unspecific binding) from MFI of TG2‐specific A20 cells. Delta MFI was normalized for each experiment by dividing by the highest delta value per experiment. To assess the contribution and uptake of isopeptide‐linked TG2:gluten complexes, TG2 (3 µg/mL) and FITC‐labelled peptides (5 µM) were preincubated in RPMI with 2 mM CaCl2 at 37°C for 30 min before addition of A20 cells followed by 30 min incubation at 37°C. To examine the effect of TG2 secondary substrates on peptide uptake, the primary amines spermine (Sigma–Aldrich) and biotinylated cadaverine (5‐biotinamido‐pentylamine; 5‐BP, Pierce) were added to the reaction mixture (0.1–1000 µM final concentration), followed by 10 min incubation at 37°C and flow cytometry analysis. The dose‐response curve fitting to find IC50 was done using the “[Inhibitor] vs. response” equation in GraphPad Prism 8.3.0. Of note, the presence of Lysine HCl in RPMI medium represents an experimental constant in our assays that is not accounted for when calculating the competitive effect of amine.

[2] = tested on: TCR-transfectant cells specific for DQ2.5-glia-ω2; test: Inhibition by primary amines of activation of DQ2.5-glia-ω2-specific T cells by TG2-specific B cells, IL-2 ELISA; format: cell-based; conditions: for IC50: 5 µM N-ω-gliadin 34-mer, TG2, CaCl2, amine 0-1000 µM, IL-2 ELISA
Excerpt: as §1
The B‐cell/T‐cell collaboration assays were set up as previously described. To compare the uptake and presentation of different gluten peptides to T cells, A20 cells (5 mill/mL) expressing the TG2‐specific BCR (679‐14‐E06) and HLA DQ2.5 were incubated with recombinant TG2 (final 3 µg/mL) and varying amounts of N‐α‐gliadin 20‐mer, N‐ω‐gliadin 19‐mer, or N‐γ‐gliadin 21‐mer in RPMI supplemented with 2 mM CaCl2. After a 30 min incubation at 37°C the cells were washed with 1% FCS/RPMI and resuspended in 5% FCS/RPMI to give a final 1.5 million cells/mL (150 000/well) followed by 2 h incubation at 37°C. Next, TCR‐transfectant cells specific for either DQ2.5‐glia‐α2, DQ2.5‐glia‐ω2, or DQ2.5‐glia‐γ1 were added (25 000/well), followed by overnight incubation at 37°C. The next day, IL‐2 concentration was measured in the culture supernatant by ELISA as previously described. The responsiveness of different TCR transfectants was assessed in the same way, but without the 30 min incubation with TG2, and using the synthetic deamidated peptides (D‐α‐gliadin 20‐mer, D‐ω‐gliadin 17‐mer, and D‐γ‐gliadin 21‐mer). To assess how TG2 secondary substrate affects peptide uptake and presentation to T cells, TG2‐specific A20 cells expressing DQ2.5 were incubated with TG2, CaCl2, 5 µM N‐ω‐gliadin 34‐mer, or 5 µM N‐α‐gliadin 33‐mer in the presence of primary amines at increasing concentrations (0‐1000 µM), before the addition of TCR‐transfectant cells specific for the DQ2.5‐glia‐α2 or DQ2.5‐glia‐ω2 epitopes. The dose‐response curve fitting to find IC50 was done using the “[Inhibitor] vs. response” equation in GraphPad Prism 8.3.0. To examine whether primary amines directly affect the B cells, TG2‐specific A20 cell expressing DQ2.5 were incubated with primary amines for 30 min and washed, before addition of 2 µM D‐ω‐gliadin 34‐mer, followed by incubation with DQ2.5‐glia‐ω2 TCR transfectants.

[3] = logIC50, inhibition of FITC-α2 uptake, Figure 4
[4] = logIC50, inhibition of FITC-α2 uptake, mean
[5] = logIC50, inhibition of FITC-α2 uptake, replicate Figure S4 A
[6] = logIC50, inhibition of FITC-α2 uptake, replicate Figure S4 B
[7] = logIC50, inhibition of FITC-γ1 uptake, Figure 4
[8] = logIC50, inhibition of FITC-γ1 uptake, mean
[9] = logIC50, inhibition of FITC-γ1 uptake, replicate Figure S4 C
[10] = logIC50, inhibition of FITC-ω2 uptake, Figure 4
[11] = logIC50, inhibition of FITC-ω2 uptake, mean
[12] = logIC50, inhibition of FITC-ω2 uptake, replicate Figure S4 A
[13] = DQ2.5-glia-ω2, replicate Figure S5A
[14] = DQ2.5-glia-ω2, replicate Figure S5B
[15] = logIC50, DQ2.5-glia-ω2, Figure 5
[16] = logIC50, DQ2.5-glia-ω2, replicate Figure S5A
[17] = logIC50, DQ2.5-glia-ω2, replicate Figure S5B

NCCCNCCCCNCCCN [spermine] was tested, and the IC50 ([1]; 10 min, inhibition of FITC-α2 (5 µM) uptake, TG2 3 µg/mL, 2 mM CaCl2, RPMI, 37°C 10 min, Figure 4, read-out: IC50) was 29.3 µM, the IC50 ([1]; 10 min, inhibition of FITC-α2 (5 µM) uptake, TG2 3 µg/mL, 2 mM CaCl2, RPMI, 37°C 10 min, mean, read-out: IC50) was 66.1 µM and the IC50 ([1]; 10 min, inhibition of FITC-α2 (5 µM) uptake, TG2 3 µg/mL, 2 mM CaCl2, RPMI, 37°C 10 min, replicate Figure S4 A, read-out: IC50) was 47.6 µM. It also gave an IC50 ([1]; 10 min, inhibition of FITC-α2 (5 µM) uptake, TG2 3 µg/mL, 2 mM CaCl2, RPMI, 37°C 10 min, replicate Figure S4 B, read-out: IC50) of 121 µM, an IC50 ([1]; 10 min, inhibition of FITC-γ1 (5 µM) uptake, TG2 3 µg/mL, 2 mM CaCl2, RPMI, 37°C 10 min, Figure 4, read-out: IC50) of 45.3 µM and an IC50 ([1]; 10 min, inhibition of FITC-γ1 (5 µM) uptake, TG2 3 µg/mL, 2 mM CaCl2, RPMI, 37°C 10 min, mean, read-out: IC50) of 31.9 µM. For the same molecule, the IC50 ([1]; 10 min, inhibition of FITC-γ1 (5 µM) uptake, TG2 3 µg/mL, 2 mM CaCl2, RPMI, 37°C 10 min, replicate Figure S4 C, read-out: IC50) was 18.7 µM, the IC50 ([1]; 10 min, inhibition of FITC-ω2 (5 µM) uptake, TG2 3 µg/mL, 2 mM CaCl2, RPMI, 37°C 10 min, Figure 4, read-out: IC50) was 14 µM and the IC50 ([1]; 10 min, inhibition of FITC-ω2 (5 µM) uptake, TG2 3 µg/mL, 2 mM CaCl2, RPMI, 37°C 10 min, mean (spermine: Figure S4 B not included), read-out: IC50) was 26.1 µM. For the same molecule, the IC50 ([1]; 10 min, inhibition of FITC-ω2 (5 µM) uptake, TG2 3 µg/mL, 2 mM CaCl2, RPMI, 37°C 10 min, replicate Figure S4 A, read-out: IC50) was 38.2 µM, the IC50 ([1]; FITC 9-mer native gluten peptides, average IC50 values, Table S1, read-out: IC50, inhibition of FITC-9-mer peptide uptake (average values)) was 26 to 72 µM and the “inhibition of FITC-9-mer uptake, in words” value ([1]; TG2 3 µg/mL, FITC peptide 5 µM, 2 mM CaCl2, 37°C 10 min, Figure 4, Figure S4) was “effectively inhibited uptake”. The logIC50 ([1]; inhibition of FITC-α2 uptake, Figure 4) was 1.47, the logIC50 ([1]; inhibition of FITC-α2 uptake, mean) was 1.74 and the logIC50 ([1]; inhibition of FITC-α2 uptake, replicate Figure S4 A) was 1.68. It also gave a logIC50 ([1]; inhibition of FITC-α2 uptake, replicate Figure S4 B) of 2.08, a logIC50 ([1]; inhibition of FITC-γ1 uptake, Figure 4) of 1.66 and a logIC50 ([1]; inhibition of FITC-γ1 uptake, mean) of 1.46. It also gave a logIC50 ([1]; inhibition of FITC-γ1 uptake, replicate Figure S4 C) of 1.27, a logIC50 ([1]; inhibition of FITC-ω2 uptake, Figure 4) of 1.15 and a logIC50 ([1]; inhibition of FITC-ω2 uptake, mean) of 1.36. For the same molecule, the logIC50 ([1]; inhibition of FITC-ω2 uptake, replicate Figure S4 A) was 1.58, the logIC50 ([1]; inhibition of FITC-ω2 uptake, replicate Figure S4 B) was 16.4 and the “log 95% CI lower limit” value [1, 3] was 0.911. The “log 95% CI upper limit” value [1, 3] was 2.19, the “log 95% CI lower limit” value [1, 4] was 1.31 and the “log 95% CI upper limit” value [1, 4] was 2.23. For the same molecule, the “log 95% CI lower limit” value [1, 5] was 1.49, the “log 95% CI upper limit” value [1, 5] was 1.864 and the “log 95% CI lower limit” value [1, 6] was 1.53. The “log 95% CI upper limit” value [1, 6] was 2.63, the “log 95% CI lower limit” value [1, 7] was 1.20 and the “log 95% CI upper limit” value [1, 7] was 2.08. The “log 95% CI lower limit” value [1, 8] was 1.02, the “log 95% CI upper limit” value [1, 8] was 2.0 and the “log 95% CI lower limit” value [1, 9] was 0.84. The “log 95% CI upper limit” value [1, 9] was 1.92, the “log 95% CI lower limit” value [1, 10] was 0.93 and the “log 95% CI upper limit” value [1, 10] was 1.39. For the same molecule, the “log 95% CI lower limit” value [1, 11] was 1.16, the “log 95% CI upper limit” value [1, 11] was 1.59 and the “log 95% CI lower limit” value [1, 12] was 1.38. The “log 95% CI upper limit” value [1, 12] was 1.79, the IC50 ([2]; DQ2.5-glia-ω2, Figure 5) was 55.1 µM and the IC50 ([2]; DQ2.5-glia-ω2, mean) was 27.5 µM. It also gave an IC50 [2, 13] of 18.4 µM, an IC50 [2, 14] of 9.13 µM and a logIC50 ([2]; DQ2.5-glia-ω2, Figure 5) of 1.74. It also gave a logIC50 ([2]; DQ2.5-glia-ω2, mean) of 1.32, a logIC50 [2, 13] of 1.26 and a logIC50 [2, 14] of 0.960. For the same molecule, the “log 95% CI lower limit” value [2, 15] was 1.50, the “log 95% CI upper limit” value [2, 15] was 1.99 and the “log 95% CI lower limit” value ([2]; logIC50, DQ2.5-glia-ω2, mean) was 1.04. For the same molecule, the “log 95% CI upper limit” value ([2]; logIC50, DQ2.5-glia-ω2, mean) was 1.58, the “log 95% CI lower limit” value [2, 16] was 1.03 and the “log 95% CI upper limit” value [2, 16] was 1.50. For the same molecule, the “log 95% CI lower limit” value [2, 17] was 0.610 and the “log 95% CI upper limit” value [2, 17] was 1.26.
